Laboratory results as given in ChEMBL document CHEMBL1132013, “Synthesis, computer modeling and biological evaluation of novel protein kinase C agonists based on a 7-membered lactam moiety” (Bioorg Med Chem Lett, 1999).

Tests used:
[1] = system: HL-60; assay: Inhibition of HL-60 monocyte cell proliferation; Range = 1-8 uM; assay type: functional; conditions: Homo sapiens, read-out: ED50 (the source's name)
[2] = biological target: T1, Protein kinase C alpha type (Homo sapiens, UniProt P17252); assay: (§1) Displacement of [3H]PDBu from human recombinant Protein kinase C alpha
[3] = biological target: T1, Protein kinase C alpha type; assay: as §1; remark: listed apart in the source
[4] = system: HL-60; assay: Inhibition of HL-60 monocyte cell proliferation; Range = 0.3-0.7 uM; assay type: functional; conditions: Homo sapiens, read-out: ED50 (the source's name)
[5] = system: HL-60; assay: Inhibition of HL-60 monocyte cell proliferation; assay type: functional; conditions: Homo sapiens, read-out: ED50 (the source's name)

In the case of CC(C)CCCC(C)[C@H]1CC[C@H]2[C@@H]3CC[C@H]4CC(=O)N[C@H](CO)C[C@]4(C)[C@H]3CC[C@]12C (some centres undefined), the EC50 [1] is reported as 8000 nM and the Ki [2] is reported as > 500 nM.

For C[C@@]12CCC[C@H]1[C@@H]1CC[C@H]3CC(=O)N[C@H](CO)C[C@]3(C)[C@H]1CC2, the EC50 [1] was 8000 nM and the Ki [2] was > 500 nM.

CC(C)CCCC(C)[C@H]1CC[C@H]2[C@@H]3CC[C@H]4CC(=O)N[C@@H](CO)C[C@]4(C)[C@H]3CC[C@]12C (some centres undefined) was tested, and the EC50 [1] was 8000 nM and the Ki [2] was > 500 nM.

CCCCC1(CCCC)CC[C@H]2CC(=O)N[C@H](CO)C[C@]2(C)C1 was tested, and the Ki [3] was 80 nM, the EC50 [4] was 700 nM and the Ki [2] was 60 nM.

CCCCC1(CCCC)CC[C@H]2CC(=O)N[C@@H](CO)C[C@]2(C)C1 showed an EC50 [4] of 700 nM and a Ki [2] of 190 nM.

In the case of CCCC[C@@H]1C(=O)N[C@H](CO)C[C@]2(C)CC(CCCC)(CCCC)CC[C@@H]12, the EC50 [5] is reported as 150 nM and the Ki [2] is reported as 17 nM.

For CCCCCCCC[C@@H]1C(=O)N[C@H](CO)C[C@]2(C)CC(CCCC)(CCCC)CC[C@@H]12, the EC50 [5] was 150 nM and the Ki [2] was 11 nM.

CCCCC1(CCCC)CC[C@H]2[C@H](C)C(=O)N[C@H](CO)C[C@]2(C)C1 showed an EC50 [5] of 150 nM and a Ki [2] of 21 nM.

C[C@@]12CCC[C@H]1[C@@H]1CC[C@H]3CC(=O)N[C@@H](CO)C[C@]3(C)[C@H]1CC2 was tested, and the EC50 [1] was 8000 nM and the Ki [2] was > 500 nM.
